From patent US10668020B1, “Pullulan based vinpocetine tablets, lyoplant-tabs, as a buccal solid dosage form” (King Abdulaziz University, priority 2019, dated 2020)
Converted amounts (≈) assume the structure as drawn.

Columns and labels:
[1] = Equilibrium saturation solubility and solubilization efficiency; format: physicochemical; conditions: distilled water, thermodynamic from solid; pure drug, water at 25° C.; read-out: solubility of VPN in water
Procedure: To study the effects of the prepared solid dispersions on the solubility of VPN, the equilibrium solubility was determined as previously reported. (Ahmed et al. Pharm Dev Technol. 2011; 16 (5):497-510). An excess amount of either pure drug or the prepared solid dispersions were added to screw-capped vials containing 10 mL of distilled water. The vials were placed in a thermostatically controlled shaking water bath (Model 1031; GFL Corporation. Burgwedel, Germany) at 25±0.5° C. for 48 h. […] Aliquots withdrawn were filtered through a 0.22 μm pore-size Millipore filter and assayed for drug content using high performance liquid chromatography (HPLC) method Ding et al. Asian J Pharm Sci. 2015; 10:114-120. doi:10.1016/j.ajps.2014.08.008), with slight modifications. An isocratic HPLC method was performed using Agilent 1200 series equipped with UV diode array detector. A reversed phase C18 analytical column (4×250 mm, 5 μm; Thermo Fischer Scientific) was used. The mobile phase was composed of a mixture of methanol and 0.05 ammonium acetate buffer of pH 5.5, 80:20 (v/v). The flow rate of the mobile phase was 1 mL/min, the injection volume was 20 μL and the detection wave length was 273 nm. […]
The solubility of vinpocetine, in the prepared solid dispersions, was compared to the intrinsic drug solubility and the resulting ratios of solubilization efficiency (solubility enhancement) were calculated. […]

[2] = Phase solubility study and thermodynamic parameter of solubility in aqueous PVP-VA64 solution; format: physicochemical
Procedure: An excess amount of pure VPN was added separately into screw-capped vials containing 10 mL of aqueous polyvinyl pyrrolidone vinyl acetate (PVP-VA64) solution (0-10% w/v). The vials were sealed and shaken in a water bath at 37° C. for 72 h. Aliquots (n=3) from each vial were filtered through a 0.22 μm pore-size Millipore filter, and the filtrates were assayed by HPLC. The change in the solubility of VPN resulting from the addition of different PVP-VA-64 concentrations was used to construct a phase-solubility plot and to evaluate the stoichiometry and the stability constant of complexation (Kst), which exemplifies the strength of the interaction and stability of the complex formed.
Calculation of the apparent stability constant, Kst, was achieved from the phase solubility diagram according to the equation described by Higuchi and Connors (Adv Anal Chem Instrum. 1965; 4:117-210), based on the assumption that 1:1 complex was initially formed.
[formula] In the equation, “So” represents the drug solubility in the absence of the studied polymer (the intercept of the phase solubility diagram constructed).
To evaluate the solubilizing efficiency of the studied polymer for the drug, the complexation efficiency (CE) was determined. It was calculated according to the following equation: CE=So K1:1=slope/(1-slope).
The Gibbs free energy (ΔG°tr) for the transfer of VPN from pure water to aqueous solutions of PVP-VA-64 was calculated using the following equation: ΔG°tr=−2.303 RT Log (Sc/So) where Sc/So is the ratio of the molar drug solubility in an aqueous solution of PVP-VA-64 to that of pure water. R is the gas rate constant ([…]) and T is the temperature in Kelvin at which the study was conducted. The Gibbs free energy can also be referred to as the thermodynamic potential that is minimized when a system reaches chemical equilibrium from an initial state to a final state at constant pressure and temperature. Dissolution of the Prepared Solid Dispersion

[3] = In vitro dissolution of the prepared solid dispersion (USP apparatus II); format: physicochemical; conditions: simulated intestinal fluid pH 6.8, 37° C.
Procedure: An in vitro dissolution study of the pure drug and the vinpocetin-PVP-VA64 inclusion complex (equivalent to 5 mg VPN) was performed in triplicate, using the United States Pharmacopeia (USP) dissolution test apparatus II paddle type, DT 700 LH device, Erweka GmbH DT 700 (Heusenstamm, Germany) at 37° C. for 2 h, with a stirring rate of 50 rpm, in 900 mL of enzyme-free simulated intestinal fluid (pH 6.8). Aliquots were collected at 5, 10, 15, 20, 25, 30, 45, 60, 90 and 120 min, with immediate replacement of an equal volume of fluid, and the collected samples were filtered through a 0.22 μm pore-size Millipore filter and assayed for drug content using high performance liquid chromatography (HPLC). From the dissolution profile curve constructed, DP5min, DP30min and DP120min, the percent of drug dissolved within 5, 30 and 120 minutes, respectively, were estimated. Also, the dissolution efficiency within 10 and 120 minutes, (DE10min) and (DE120min), respectively and, the mean dissolution time were calculated. For each formulation, the dissolution efficiency was determined as the percent ratio of area under the dissolution profile curve up to the time, t, to that of the area of the rectangle described by 100% dissolution at the same time.

[4] = weak basic drug; cited from earlier work
[5] = background statement; cited from earlier work

In the case of `CCOC(=O)C1=C[C@]2(CC)CCCN3CCc4c(n1c1ccccc41)[C@@H]32` [Vinpocetine], the solubility at 48 h [1] is reported as 2.31 µg/mL (≈ 6.59 µM), the “ΔG°tr” value ([2]; 1% polymeric solution (PVP-VA-64)) is reported as -1.144722 kcal/mol and the “ΔG°tr” value ([2]; 2% polymeric solution (PVP-VA-64)) is reported as -1.513035 kcal/mol. The “ΔG°tr” value ([2]; 3% polymeric solution (PVP-VA-64)) was -1.766491 kcal/mol, the “ΔG°tr” value ([2]; 4% polymeric solution (PVP-VA-64)) was -2.010924 kcal/mol and the “ΔG°tr” value ([2]; 5% polymeric solution (PVP-VA-64)) was -2.097426 kcal/mol. For the same molecule, the “ΔG°tr” value ([2]; 6% polymeric solution (PVP-VA-64)) was -2.189169 kcal/mol, the “ΔG°tr” value ([2]; 7% polymeric solution (PVP-VA-64)) was -2.315229 kcal/mol and the “ΔG°tr” value ([2]; 8% polymeric solution (PVP-VA-64)) was -2.413399 kcal/mol. For the same molecule, the “ΔG°tr” value ([2]; 9% polymeric solution (PVP-VA-64)) was -2.456587 kcal/mol, the “ΔG°tr” value ([2]; 10% polymeric solution (PVP-VA-64)) was -2.547512 kcal/mol and the “type of complexation (phase solubility profile)” value ([2]; VPN with PVP-VA-64) was “AP-type complexation”. For the same molecule, the “complexation efficiency CE” value ([2]; VPN with PVP-VA-64, 37° C.) was 0.0014, the stability constant Kst ([2]; VPN with PVP-VA-64, 37° C., 1:1 complex assumed) was 7 mL/mg and the “DE120, dissolution efficiency within 120 minutes” value [3] was 18.67±3.73%. For the same molecule, the “DE10min, dissolution efficiency within 10 minutes” value [3] was 0.428±0.159%, the “DP5min, percent of drug dissolved within 5 minutes” value ([3]; 50 rpm) was 5.62±2.45% and the “DP30min, percent of drug dissolved within 30 minutes” value ([3]; 50 rpm) was 16.46±3.58%. For the same molecule, the “DP120min, percent of drug dissolved within 120 minutes” value ([3]; 50 rpm) was 22.41±6.04%, the pKa [4] was 7.31 and the elimination half-life [5] was 1 to 2 h. The “first pass metabolism (metabolism in liver)” value [5] was 75%.
